The text below walks through data of paper PMC8234218, “In Vitro and In Vivo Efficacies of the Linear and the Cyclic Version of an All-D-Enantiomeric Peptide Developed for the Treatment of Alzheimer’s Disease” (International Journal of Molecular Sciences, 2021).

Each structure is given as a SMILES string. Like-named read-outs stand apart in the source and are kept apart here. Where a SMILES comes first, the peptide text is derived from it. [ ]: non-standard residue; d: D form.

What is called Kd is the constant that tells how readily two partners part at equilibrium.

A short description of data set [1]: Proteolytic stability in simulated intestinal fluid (SIF). The format is in vitro ADME. As to the method: (§1) Both compounds have already been extensively studied with respect to their in vivo pharmacokinetic profiles. Here, we performed some additional test to investigate the proteolytic stability of the compounds in simulated gastric (SGF) and intestinal fluid (SIF) and human plasma and human liver microsomes. The experiments were performed as described previously. According to the guidelines of the European Pharmacopoeia 7.0, SGF and SIF were prepared. Plasma was purchased from Biotrend with K3-EDTA as an anticoagulant (Biotrend, Köln, Germany). Human liver microsomes were pooled from different donors and purchased from Sekisui XenoTech (Kansas City, KS, USA). In order to determine whether the compounds RD2D3 and cRD2D3 are stable or would be metabolized, 150 µM of each compound was incubated in triplicate for defined time points slightly shaking at 37 °C in the media described above (SGF and SIF: 4 and 8 h, plasma: 8, 24 and 48 h and microsomes: 8 and 24 h). Incubation was stopped by precipitating the proteins. For this, 3% trichloroacetic acid (w/v) was added to the respective sample under vortexing followed by a centrifugation step (14,000× g at 4 °C for 5 min). For analysis, supernatants containing the compounds were collected. The precipitated media without compound was used as a control and as reference for the quantification served each medium with compound where the reaction was stopped immediately by precipitating the proteins. All samples were analyzed by RP-HPLC as previously described.

The nature of data set [2]: Proteolytic stability in human plasma. The format is in vitro ADME. As to the method:
as §1

Data set [3] has as its target T1, Aβ(1-42) (Homo sapiens, UniProt P05067).
T1 construct: Synthetic Aβ(1-42) and (Gln^22, Asn^23)-Amyloid β-Protein (1-40) (D/I Aβ) with >95% purity were purchased; purchased Bachem (Bubendorf, Switzerland); host or cells: chemical synthesis
As to the kind of experiment: SPR, D-peptide immobilized, Aβ(1-42) monomers as analyte. The format is binding. Particulars: D-peptide immobilized on series S CM-5 chip, Aβ(1-42) monomers analyte 0.0045-10 µM, 10 mM HEPES + 50 mM NaCl pH 7.4, 25 °C, steady-state Langmuir 1:1 fit (Fig. 1g), read-out: KD Aβ(1-42), D-peptide as ligand. As to the method: The dissociation constant (KD) of RD2D3 and cRD2D3 binding to Aβ(1-42) and D/I Aβ was determined by SPR spectroscopy using a Biacore T200 instrument (Biacore, GE Healthcare, Uppsala, Sweden). Aβ(1-42) or D/I Aβ was used as the ligand, while RD2D3 and cRD2D3 were used as the analyte or vice versa.
By using the compounds (RD2D3 and cRD2D3) as ligands, they were immobilized on two separate channels on a series S CM-5 sensor chip (Cytiva, GE Healthcare, Uppsala, Sweden) by amine coupling. Both flow cells on each channel were activated with a mixture of 50 mM N-hydroxysuccinimide (NHS) and 16.1 mM N-ethyl-N’-(dimethylaminopropyl)carbodiimide (EDC) (XanTec, Düsseldorf, Germany) for 7 min. The peptides were diluted to 50 µg/mL in 10 mM maleic acid pH 6 (AppliChem, Darmstadt, Germany) and injected over flow cell two of each channel to a final signal between 600 and 900 RU. After the peptides were immobilized, the ligand and reference flow cells of each channel were quenched by injecting 1 M ethanolamine pH 8.5 (XanTec, Düsseldorf, Germany) for 7 min. […] Aβ(1-42) or D/I Aβ were diluted in the running buffer to the following concentrations: 10 µM, 3.3 µM, 1.1 µM, 0.37 µM, 0.12 µM, […], 0.014 µM and 0.0045 µM. All samples were injected over the flow cells for 180 s, followed by a dissociation step of 600 s with running buffer. […]
(In general: Surface plasmon resonance follows binding to a sensor surface in real time, without labels.)

The conditions of data set [4]: cited from earlier work. From the text: Our society is aging and, with it, the number of diseases of old age, especially dementias, are increasing. Alzheimer’s disease (AD) is a devastating neurodegenerative disorder and the most common form of dementia worldwide. Its clinical symptoms are considered to be disturbances of memory, language, spatial and temporal orientation and cognitive decline. The pathological hallmarks of the disease are characterized by neurodegeneration, intracellular depositions of neurofibrillary tangles and extracellular accumulations of amyloid-β (Aβ) plaques.

The nature of data set [5]: Body weight in i.p. treatment study. The data set is classed as in vivo. To be noted: Tg-SwDI mice, mean ± SEM; for Body weight before treatment: 11 months old, before 28 d i.p. osmotic minipump 8 mg/kg daily; for Body weight after treatment: after 28 d i.p. osmotic minipump 8 mg/kg daily. As to the method:
Eleven months old Tg-SwDI were treated for 28 d i.p. by use of an osmotic minipump (Alzet osmotic pumps, Modell 1004, Charles River, Wilmington, MS, USA) with a daily dosage of 8 mg/kg peptide (RD2D3 (n = 14) or cRD2D3 (n = 12)) in PBS (pH 7.4) or vehicle (Placebo (n = 13), PBS, pH 7.4). The minipumps and the i.p. application route have been used to achieve continuous application of the study drug. After surgery, mice were monitored daily the following three days and twice each week until the end of the treatment. A loss of body weight and severe conspicuities were defined as exclusion criteria. No mouse was affected by these exclusion criteria. During the last one and a half weeks of treatment, different behavioral tests (nesting behavior, marble burying, open field test and MWM) were conducted with all mice.

The nature of data set [6]: Proteolytic stability in human liver microsomes. The format is in vitro ADME. The protocol:
as §1
On the technique in general: Liver microsomes are a subcellular fraction often used to study metabolism.

T1 sequence (P05067 672-713): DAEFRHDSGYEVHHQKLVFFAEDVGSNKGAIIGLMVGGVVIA

For the molecule `CC(C)C[C@H]1NC(=O)[C@@H](CCCNC(=N)N)NC(=O)[C@@H]([C@H](C)O)NC(=O)[C@@H](CCCNC(=N)N)NC(=O)[C@H]2CCCN2C(=O)[C@@H](CCCNC(=N)N)NC(=O)[C@@H](CCCNC(=N)N)NC(=O)[C@@H](CCCNC(=N)N)NC(=O)[C@@H](CCCNC(=N)N)NC(=O)[C@@H](CCCNC(=N)N)NC(=O)[C@@H](CCCNC(=N)N)NC(=O)[C@@H](CC(N)=O)NC(=O)[C@@H](Cc2c[nH]cn2)NC(=O)[C@@H]([C@H](C)O)NC(=O)[C@@H](Cc2c[nH]cn2)NC(=O)[C@@H](CC(C)C)NC(=O)[C@@H]([C@H](C)O)NC(=O)[C@H]2CCCN2C(=O)[C@@H](CCCNC(=N)N)NC(=O)[C@@H](CC(N)=O)NC(=O)[C@@H](CCCNC(=N)N)NC(=O)[C@@H](Cc2c[nH]cn2)NC(=O)[C@@H]([C@H](C)O)NC(=O)[C@@H](Cc2c[nH]cn2)NC1=O` [cRD2D3] (cyclo([dH][dN][dR][dR][dR][dR][dR][dR][dP][dR][dT][dR][dL][dH][dT][dH][dR][dN][dR][dP][dT][dL][dH][dT])), in data set [1] (simulated intestinal fluid (SIF), simulated intestinal fluid (Eur. Pharmacopoeia 7.0), 150 µM, 37 °C, 4 h, TCA precipitation, RP-HPLC, referenced to immediately stopped sample, mean of three independent experiments, read-out: Stability in SIF, 4 h), the remaining at 4 h, 150 µM was 96%. Also, the remaining at 8 h, 150 µM in data set [1] (simulated intestinal fluid (SIF), simulated intestinal fluid (Eur. Pharmacopoeia 7.0), 150 µM, 37 °C, 8 h, TCA precipitation, RP-HPLC, referenced to immediately stopped sample, mean of three independent experiments, read-out: Stability in SIF, 8 h) was 87.2%; in data set [2] (human plasma (K3-EDTA), 150 µM, 37 °C, 8 h, TCA precipitation, RP-HPLC, mean of three independent experiments, read-out: Stability in human plasma, 8 h), 91.8%; in data set [6] (pooled human liver microsomes, 150 µM, 37 °C, 8 h, TCA precipitation, RP-HPLC, mean of three independent experiments, read-out: Stability in human liver microsomes, 8 h) it was 89.2%. The remaining at 24 h, 150 µM in data set [2] (human plasma (K3-EDTA), 150 µM, 37 °C, 24 h, TCA precipitation, RP-HPLC, mean of three independent experiments, read-out: Stability in human plasma, 24 h) was determined as 93.7%; in data set [6] (pooled human liver microsomes, 150 µM, 37 °C, 24 h, TCA precipitation, RP-HPLC, mean of three independent experiments, read-out: Stability in human liver microsomes, 24 h), 73.6%. Further, the remaining at 48 h, 150 µM in data set [2] (human plasma (K3-EDTA), 150 µM, 37 °C, 48 h, TCA precipitation, RP-HPLC, mean of three independent experiments, read-out: Stability in human plasma, 48 h) was found to be 92.4%. For the same molecule, in data set [3], the Kd is 5.63 ± 2.5 µM. For the same molecule, in data set [4] (C57BL/6 mice, i.v. and i.p. administration), the “Brain concentrations relative to RD2D3” value was “four to five times higher”. Further, the “Terminal half-life (in plasma)” value in data set [4] (C57Bl/6 wild type mice, after i.v. and i.p. administration, ref 17 (b3)) is recorded as 58 h. The Oral bioavailability result in data set [4] was “high oral bioavailability”. In addition, the “Body weight before treatment” value in data set [5] was 35.1 ± 1.4 g. Also, in data set [5], the “Body weight after treatment” value came to 33.2 ± 1.0 g.
In data set [1] (simulated intestinal fluid), `CC(C)C[C@@H](NC(=O)[C@@H](CCCNC(=N)N)NC(=O)[C@H](NC(=O)[C@@H](CCCNC(=N)N)NC(=O)[C@H]1CCCN1C(=O)[C@@H](CCCNC(=N)N)NC(=O)[C@@H](CCCNC(=N)N)NC(=O)[C@@H](CCCNC(=N)N)NC(=O)[C@@H](CCCNC(=N)N)NC(=O)[C@@H](CCCNC(=N)N)NC(=O)[C@@H](CCCNC(=N)N)NC(=O)[C@@H](CC(N)=O)NC(=O)[C@@H](Cc1c[nH]cn1)NC(=O)[C@H](NC(=O)[C@@H](Cc1c[nH]cn1)NC(=O)[C@@H](CC(C)C)NC(=O)[C@H](NC(=O)[C@H]1CCCN1)[C@H](C)O)[C@H](C)O)[C@H](C)O)C(=O)N[C@H](Cc1c[nH]cn1)C(=O)N[C@@H](C(=O)N[C@H](Cc1c[nH]cn1)C(=O)N[C@H](CCCNC(=N)N)C(=O)N[C@H](CC(N)=O)C(=O)N[C@H](CCCNC(=N)N)C(N)=O)[C@H](C)O` [RD2D3] (H-[dP][dT][dL][dH][dT][dH][dN][dR][dR][dR][dR][dR][dR][dP][dR][dT][dR][dL][dH][dT][dH][dR][dN][dR]-NH2) displayed a remaining at 4 h, 150 µM of 100% and a remaining at 8 h, 150 µM of 93.5%. In data set [2] (human, plasma), this molecule gave a remaining at 8 h, 150 µM of 84.7%; a remaining at 24 h, 150 µM of 91.9%; a remaining at 48 h, 150 µM of 93.7%. The Kd in data set [3] was determined as 18.4 ± 6.5 µM. Further, in data set [4] (mouse, in vivo), the “Terminal half-life (in plasma)” value is listed as 2.3 h. In data set [5], the “Body weight before treatment” value turned out to be 33.2 ± 2.6 g and the “Body weight after treatment” value is 34.3 ± 0.6 g. For the same molecule, in data set [6] (human, microsomes), the remaining at 8 h, 150 µM was 81.9% and the remaining at 24 h, 150 µM came to 78.2%.
